Measurements published in PubChem BioAssay (NCI).
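These data come from cells grown in 96-well plates and exposed to compound for 48 hours at five concentrations. GI50 is the concentration that inhibits growth by half. TGI is the concentration that stops growth completely.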

Assays:
Test in all cases: growth of human tumour cells (NCI), 48 h
[1] = system: SK-MEL-2 melanoma
[2] = system: SNB-75 CNS
[3] = system: RXF 393 renal
[4] = system: SF-268 CNS
[5] = system: K-562 leukemia
[6] = system: NCI-H522 lung
[7] = system: CCRF-CEM leukemia
[8] = system: NCI-H23 lung
[9] = system: HCT-116 colon
[10] = system: MOLT-4 leukemia
[11] = system: IGROV1 ovarian
[12] = system: HOP-92 NSCLC
[13] = system: SNB-19 CNS
[14] = system: HL-60(TB) leukemia
[15] = system: NCI/ADR-RES ovarian
[16] = system: HS 578T breast
[17] = system: HCC-2998 colon
[18] = system: SF-539 CNS
[19] = system: T-47D breast
[20] = system: COLO 205 colon
[21] = system: SN12C renal
[22] = system: DU-145 prostate
[23] = system: U251 CNS
[24] = system: TK-10 renal
[25] = system: MDA-MB-231 breast
[26] = system: EKVX NSCLC
[27] = system: SK-OV-3 ovarian
[28] = system: OVCAR-4 ovarian
[29] = system: ACHN renal
[30] = system: SF-295 CNS
[31] = system: NCI-H460 lung
[32] = system: SK-MEL-5 melanoma
[33] = system: UACC-257 melanoma
[34] = system: MALME-3M melanoma
[35] = system: A549 NSCLC
[36] = system: RPMI-8226 leukemia
[37] = system: OVCAR-5 ovarian
[38] = system: UACC-62 melanoma
[39] = system: SW-620 colon
[40] = system: MDA-MB-435
[41] = system: LOX IMVI melanoma
[42] = system: MCF7 breast
[43] = system: OVCAR-3 ovarian
[44] = system: HOP-62 NSCLC
[45] = system: PC-3 prostate
[46] = system: NCI-H226 lung
[47] = system: CAKI-1 renal
[48] = system: 786-0 renal
[49] = system: UO-31 renal
[50] = system: HT29 colon
[51] = system: HCT-15 colon
[52] = system: KM12 colon
[53] = system: OVCAR-8 ovarian

O=c1cc(-c2ccccc2)oc2cc(OCc3cn(Cc4ccc(F)cc4)nn3)cc(OCc3cn(Cc4ccc(F)cc4)nn3)c12
GI50 [1]: 4.49 µM
TGI [1]: 33.1 µM
GI50 [2]: 1.69 µM
TGI [2]: 4.85 µM
GI50 [3]: 1.78 µM
TGI [3]: 4.5 µM
GI50 [4]: 3.52 µM
TGI [4]: > 100 µM
GI50 [5]: > 100 µM
TGI [5]: > 100 µM
GI50 [6]: 3.66 µM
TGI [6]: > 100 µM
GI50 [7]: > 100 µM
TGI [7]: > 100 µM
GI50 [8]: 3.7 µM
TGI [8]: > 100 µM
GI50 [9]: 3.52 µM
TGI [9]: > 100 µM
GI50 [10]: > 100 µM
TGI [10]: > 100 µM
GI50 [11]: 4.45 µM
TGI [11]: > 100 µM
GI50 [12]: 1.89 µM
TGI [12]: 5.52 µM
GI50 [13]: 4.55 µM
TGI [13]: > 100 µM
GI50 [14]: > 100 µM
TGI [14]: > 100 µM
GI50 [15]: > 100 µM
TGI [15]: > 100 µM
GI50 [16]: 3.28 µM
TGI [16]: > 100 µM
GI50 [17]: > 100 µM
TGI [17]: > 100 µM

Cc1ccc2c(c1)C(=O)C(c1c(-c3[nH]c(=O)c4ccc(C)cc4c3O)c(O)c3ccccc3c1O)=NC2=O
GI50 [18]: 1.67 µM
TGI [18]: 3.31 µM
GI50 [2]: 1.42 µM
TGI [2]: 2.84 µM
GI50 [19]: 1.48 µM
TGI [19]: 5.26 µM
GI50 [20]: 2.85 µM
TGI [20]: 12.8 µM
GI50 [21]: 1.8 µM
TGI [21]: 3.63 µM
GI50 [22]: 1.18 µM
TGI [22]: 2.9 µM
GI50 [23]: 1.24 µM
TGI [23]: 2.7 µM
GI50 [4]: 2.24 µM
TGI [4]: 5.47 µM
GI50 [24]: 2.91 µM
TGI [24]: 5.97 µM
GI50 [25]: 0.457 µM
TGI [25]: 3.86 µM
GI50 [26]: 1.72 µM
TGI [26]: 5.66 µM
GI50 [5]: 0.378 µM
TGI [5]: 3.44 µM
GI50 [27]: 2.15 µM
TGI [27]: 5.36 µM
GI50 [28]: 1.17 µM
TGI [28]: 2.43 µM
GI50 [29]: 1.72 µM
TGI [29]: 4.36 µM
GI50 [30]: 1.67 µM
TGI [30]: 3.55 µM
GI50 [7]: 0.83 µM
TGI [7]: 8.03 µM
GI50 [8]: 1.63 µM
TGI [8]: 4.04 µM
GI50 [31]: 1.78 µM
TGI [31]: 3.39 µM
GI50 [32]: 1.87 µM
TGI [32]: 3.81 µM
GI50 [33]: 3.04 µM
TGI [33]: 7.98 µM
GI50 [9]: 0.423 µM
TGI [9]: 1.53 µM
GI50 [34]: 1.76 µM
TGI [34]: 3.54 µM
GI50 [35]: 2.1 µM
TGI [35]: 4.26 µM
GI50 [36]: 2.32 µM
TGI [36]: 6.68 µM
GI50 [10]: 0.527 µM
TGI [10]: 3.02 µM
GI50 [37]: 2.87 µM
TGI [37]: > 100 µM
GI50 [38]: 1.76 µM
TGI [38]: 3.79 µM
GI50 [39]: 1.56 µM
TGI [39]: 3.44 µM
GI50 [40]: 1.69 µM
TGI [40]: 3.29 µM
GI50 [41]: 1.28 µM
TGI [41]: 2.71 µM
GI50 [12]: 1.66 µM
TGI [12]: 5.1 µM
GI50 [13]: 2.31 µM
TGI [13]: 7.3 µM
GI50 [42]: 1.59 µM
TGI [42]: 4.58 µM
GI50 [43]: 0.832 µM
TGI [43]: 2.4 µM
GI50 [15]: 2.11 µM
TGI [15]: 7.56 µM
GI50 [16]: 2.34 µM
TGI [16]: 6.33 µM
GI50 [17]: 2.3 µM
TGI [17]: 4.97 µM

COc1cccc(C2CC(=O)c3cc(N4CCCC4)ccc3N2)c1 (centres undefined)
TGI [18]: > 100 µM
GI50 [1]: 64.5 µM
TGI [1]: > 100 µM
TGI [19]: > 100 µM
GI50 [24]: 45.5 µM
TGI [24]: > 100 µM
GI50 [25]: 4.66 µM
TGI [25]: > 100 µM
TGI [26]: > 100 µM
TGI [5]: > 100 µM
TGI [28]: > 100 µM
TGI [29]: 34.8 µM
TGI [30]: > 100 µM
TGI [6]: 0.0624 µM
TGI [7]: > 100 µM
TGI [8]: 0.163 µM
TGI [44]: > 100 µM
TGI [45]: > 100 µM
TGI [33]: > 100 µM
TGI [46]: 36.3 µM
TGI [35]: > 100 µM
TGI [36]: > 100 µM
GI50 [37]: > 100 µM
TGI [37]: > 100 µM
TGI [39]: > 100 µM
TGI [40]: 1.49 µM
TGI [41]: > 100 µM
GI50 [12]: > 100 µM
TGI [12]: > 100 µM
TGI [13]: > 100 µM
TGI [47]: > 100 µM
GI50 [42]: 0.0739 µM
TGI [42]: > 100 µM
TGI [48]: > 100 µM
TGI [43]: > 100 µM
TGI [15]: 0.0491 µM
TGI [49]: 65.8 µM
TGI [16]: > 100 µM
GI50 [17]: 0.0146 µM
TGI [17]: 0.389 µM

COc1ccc2c3c([nH]c2c1)C(=O)c1nc(C)ccc1C3=O
GI50 [18]: 3.75 µM
TGI [18]: > 100 µM
GI50 [1]: 7.04 µM
TGI [1]: > 100 µM
GI50 [19]: 2.65 µM
TGI [19]: > 100 µM
GI50 [3]: 7.3 µM
TGI [3]: > 100 µM
GI50 [21]: 3.24 µM
TGI [21]: > 100 µM
GI50 [22]: 1.7 µM
TGI [22]: 3.24 µM
GI50 [23]: 4.85 µM
TGI [23]: > 100 µM
GI50 [4]: 7.8 µM
TGI [4]: > 100 µM
GI50 [24]: > 100 µM
TGI [24]: > 100 µM
GI50 [25]: 3.33 µM
TGI [25]: > 100 µM
GI50 [26]: 2.68 µM
TGI [26]: > 100 µM
GI50 [5]: 3.31 µM
TGI [5]: > 100 µM
GI50 [50]: 3.88 µM
TGI [50]: > 100 µM
GI50 [27]: > 100 µM
TGI [27]: > 100 µM
GI50 [28]: 2.06 µM
TGI [28]: > 100 µM
GI50 [29]: 2.55 µM
TGI [29]: > 100 µM
GI50 [30]: 1.21 µM
TGI [30]: 2.64 µM
GI50 [51]: 1.94 µM
TGI [51]: > 100 µM
GI50 [6]: 3.83 µM
TGI [6]: > 100 µM
GI50 [7]: 3.69 µM
TGI [7]: > 100 µM
GI50 [8]: 1.08 µM
TGI [8]: 4.07 µM
GI50 [52]: 4.95 µM
TGI [52]: > 100 µM
GI50 [44]: 3.5 µM
TGI [44]: > 100 µM
GI50 [45]: 2 µM
TGI [45]: > 100 µM
GI50 [31]: 1.02 µM
TGI [31]: 3.28 µM
GI50 [32]: 0.792 µM
TGI [32]: 2.2 µM
GI50 [33]: 1.48 µM
TGI [33]: 5.41 µM
GI50 [34]: 0.331 µM
TGI [34]: 1.65 µM
GI50 [36]: 2.91 µM
TGI [36]: > 100 µM
GI50 [10]: 2.63 µM
TGI [10]: > 100 µM
GI50 [11]: 0.326 µM
TGI [11]: > 100 µM
GI50 [37]: 4.42 µM
TGI [37]: > 100 µM
GI50 [38]: 1.4 µM
TGI [38]: 3.08 µM
GI50 [39]: 3.66 µM
TGI [39]: > 100 µM
GI50 [40]: 1.78 µM
TGI [40]: 3.19 µM
GI50 [41]: 2.24 µM
TGI [41]: > 100 µM
GI50 [12]: 20.7 µM
TGI [12]: > 100 µM
GI50 [13]: 2.61 µM
TGI [13]: > 100 µM
GI50 [14]: 2.79 µM
TGI [14]: > 100 µM
GI50 [53]: 3.35 µM
TGI [53]: > 100 µM
GI50 [47]: 3.82 µM
TGI [47]: > 100 µM
GI50 [42]: 1.98 µM
TGI [42]: > 100 µM
GI50 [43]: 1.62 µM
TGI [43]: 7.05 µM
GI50 [15]: 2.75 µM
TGI [15]: > 100 µM
GI50 [49]: 1.03 µM
TGI [49]: > 100 µM
GI50 [16]: 13.6 µM
TGI [16]: > 100 µM
GI50 [17]: 3.81 µM
TGI [17]: > 100 µM
